How the values were obtained:
Type in all cases: functional
B16-F10 [1] = assay: Antitumor activity against mouse B16F10 cells xenografted in C57BL/6 mouse assessed as tumor volume at 50 mg/kg/day, po after 14 days
B16-F10 [2] = assay: Antitumor activity against mouse B16F10 cells xenografted in C57BL/6 mouse assessed as growth inhibition at 50 mg/kg/day, po after 14 days relative to control; conditions: B16-F10, 336 h, read-out: TGI
B16-F10 [3] = assay: Antitumor activity against mouse B16F10 cells xenografted in C57BL/6 mouse assessed as tumor volume at 50 mg/kg/day, po after 17 days

Cn1nnc2c(C(N)=O)ncn2c1=O [TEMOZOLOMIDE]
Activity (B16-F10 [1]): 1198 mm3 | inhibition in vivo at 50 mg/kg/day (B16-F10 [2]): 65% | Activity (B16-F10 [3]): 2318 mm3

Reference: ChEMBL document CHEMBL1139389, “Discovery of the Poly(ADP-ribose) polymerase (PARP) inhibitor 2-[(R)-2-methylpyrrolidin-2-yl]-1H-benzimidazole-4-carboxamide (ABT-888) for the treatment of cancer” (J Med Chem, 2009)
